# Measured values as given in patent US6890944B2, “Organic acid salt of amlodipine” (priority 2002, dated 2005).
# Where two headings read alike, the source gives them in different places.
# Assays:
# Format in all cases: physicochemical
# [1] = Test for hygroscopicity: water content (K.F. water %) at 25° C. at different humidity levels; details: for water content (K.F. water %): 25° C.
# [2] = Test for solubility in various solvents; details: based on weight of amlodipine, note: dissolved at 37° C.
# [3] = Chemical stability in solid state, accelerated test at 60° C. (HPLC content)
# [4] = Test for light stability: aqueous solutions stored at 25° C. for 4 weeks exposed to sunlight (HPLC); details: 25° C. sunlight; for Content (HPLC): aqueous solution, stored for 4 weeks; for colour change: light stability test, 4 weeks
# Protocol: The resulting aqueous solutions were stored at 25° C. for 4 weeks while being exposed to sunlight. A measurement was made of the contents of the salts with resort to HPLC under the same conditions as in the chemical stability test.
# [5] = Chemical stability in aqueous state, stored at 25° C. for 4 weeks in complete darkness (HPLC); details: in distilled water
# Protocol: The resulting aqueous solutions were stored at 25° C. for 4 weeks in complete darkness, after which a measurement was made of the contents of the salts with resort to HPLC under the same conditions as in the solid state.
smiles,measurement,setting,value
"CCOC(=O)C1=C(COCCN)NC(C)=C(C(=O)OC)C1c1ccccc1Cl (centres unmarked) [Besylate, amlodipine besylate, reference compound]",water content (K.F. water %),"[1]; 25% RH, 1 week",0.10%
same,water content (K.F. water %),"[1]; 60% RH, 1 week",0.09%
same,water content (K.F. water %),"[1]; 75% RH, 1 week",0.15%
same,water content (K.F. water %),[1]; Initial,0.14%
same,solubility,"[2]; Dist. Water, 25° C. (text)",1290 µg/mL
same,solubility,"[2]; pH 2, ionic strength 0.2 buffer, 25° C. (text)",1290 µg/mL
same,solubility,"[2]; pH 4, ionic strength 0.2 buffer, 25° C. (text)",1320 µg/mL
same,solubility,"[2]; pH 6, ionic strength 0.2 buffer, 25° C.",1280 µg/mL
same,solubility,"[2]; pH 7, ionic strength 0.2 buffer, 25° C.",640 µg/mL
same,solubility,"[2]; pH 7.4, ionic strength 0.2 buffer, 25° C. (text)",1350 µg/mL
same,solubility,"[2]; pH 8, ionic strength 0.2 buffer, 25° C. (text)",1250 µg/mL
same,HPLC content,[3]; 1 week,99.6%
same,HPLC content,[3]; 2 weeks,99.4%
same,HPLC content,[3]; 4 weeks,99.2%
same,HPLC content,[3]; initial,99.6%
same,Content (HPLC),[4],82.5%
same,colour change,[4]; listed as amlodipine besylate,turned yellow from white
"CCOC(=O)C1=C(COCCN)NC(C)=C(C(=O)OC)C1c1ccccc1Cl.Cc1ccc(S(=O)(=O)O)cc1 (centres unmarked) [Tosylate, Amlodipine Para-toluenesulfonate]",Content (HPLC),[4],72.0%
CCOC(=O)C1=C(COCCN)NC(C)=C(C(=O)OC)C1c1ccccc1Cl.O=C(O)Cc1ccc(O)cc1 (centres unmarked) [amlodipine p-hydroxyphenylacetate],water content (K.F. water %),"[1]; 25% RH, 1 week, listed as p-hydroxyphenylacetate",0.08%
same,water content (K.F. water %),"[1]; 60% RH, 1 week, listed as p-hydroxyphenylacetate",0.1%
same,water content (K.F. water %),"[1]; 75% RH, 1 week, listed as p-hydroxyphenylacetate",0.14%
same,water content (K.F. water %),"[1]; 90% RH, 1 week",0.17%
same,water content (K.F. water %),"[1]; Initial, listed as p-hydroxyphenylacetate",0.15%
same,hygroscopicity,[1]; relative humidity 95%,≤ 0.5%
same,solubility,"[2]; Dist. Water, 25° C. (text), listed as p-Hydroxyphenylacetate",3000 µg/mL
same,solubility,"[2]; buffer pH 6, ionic strength 0.2, 25 °C, pH 6, aqueous buffer, pH 6, ionic strength 0.2 buffer, 25° C., read-out: solubility",2200 µg/mL
same,solubility,"[2]; buffer pH 7, ionic strength 0.2, 25 °C, pH 7, aqueous buffer, pH 7, ionic strength 0.2 buffer, 25° C., read-out: solubility",1100 µg/mL
same,solubility,"[2]; pH 2, ionic strength 0.2 buffer, 25° C. (text), listed as p-Hydroxyphenylacetate",8900 µg/mL
same,solubility,"[2]; pH 4, ionic strength 0.2 buffer, 25° C. (text), listed as p-Hydroxyphenylacetate",8800 µg/mL
same,solubility,"[2]; pH 7.4, ionic strength 0.2 buffer, 25° C. (text), listed as p-Hydroxyphenylacetate",4000 µg/mL
same,solubility,"[2]; pH 8, ionic strength 0.2 buffer, 25° C. (text), listed as p-Hydroxyphenylacetate",3000 µg/mL
same,HPLC content,[3]; 1 week,99.6%
same,HPLC content,[3]; 2 weeks,99.5%
same,HPLC content,[3]; 4 weeks,99.4%
same,HPLC content,[3]; initial,99.7%
same,decomposition products / content change (HPLC),[5],neither decomposition products nor content change is found
same,Content (HPLC),[4],98.9%
same,colour change,[4],kept its original white color
